This is an account of results in patent publication US8679499B2, “Methods for relieving asthma-associated airway hyperresponsiveness” (The Board of Trustees of the Leland Stanford Junior …, priority 2004, dated 2014).

Each structure is given as a SMILES string. “Also recorded” adds a separate entry of the source.

For data set [1], the system named is NKT cells. Description: Serum IgE and IgG2c before and 10 days after a single i.p. glycolipid injection. It is filed as in vivo, C57BL/6 mice. The protocol:
In a separate experiment, mean serum IgE levels of groups of three C57BL/6 mice were measured before or 10 days after a single i.p. injection of 0.1 μg α Galcer alone, 100 μg β Galcer alone, or 100 μg of β Galcer injected 1 hour before 0.1 μg α Galcer. […] The bars show means of triplicate determinations, and the brackets show standard deviations. […] We conclude that β Galcer blocks the increase in serum IgE levels induced by α Galcer. No significant change is seen with the control IgG2c expression.

Data set [2] relates to NKT cells. Briefly: Serum IFN-γ and IL-4 (ELISA) after i.p. glycolipid injection; NKT cell activation in vivo. Also on record: species or system C57BL/6 mice. The following applies: 6 hours. The protocol:
The i.p. injection of a galactosyl ceramide (obtained from Brigham Young University, Provo, Utah) into C57BL/6 mice increases serum levels of IL-4 and IFN-γ by selectively activating NKT cells. Injection of C12 β galactosyl ceramide (Avanti Lipids, Inc.) i.p. antagonizes the ability of α galactosyl ceramide to raise the levels of IL-4, interferon-gamma, and IgE in the serum of these mice.
Male C57BL/6 mice of about 8 weeks of age were given either 100 μg of β galactosyl ceramide (β Galcer) i.p., 0.1 μg of α galactosyl ceramide (α Galcer) i.p., 100 μg β Galcer i.p. either 1 hour before or at the same time as 0.1 μg α Galcer i.p., or no treatment. β-Galcer was obtained from Avanti Lipids Inc. Glycolipids were in aqueous solutions with PBS. Cytokine levels were determined by ELISA as previously described by Zeng et al. (2003), supra.

Data set [3] concerns OVA-immunized BALB/c mice. Description: OVA/alum induced AHR, murine model of asthma. In kind it is in vivo. Here is the method: (§1) In murine model of asthma, β-GalCer was administered to OVA-immunized BALB/c mice, or mice with α-GalCer induced airway hyperresponsiveness (AHR).
(§2) Immunizations. BALB/c mice were primed in the footpads with OVA (100 μg/mouse) adsorbed to 200 μg of alum (Al[OH]3). Mice were challenged with 50 μg OVA in 50 μl NaCl 0.9% intranasally 7, 8, and 9 days later. One day after the last intranasal challenge with OVA, airway hyperreactivity was measured from conscious mice after inhalation of increasing concentrations of methacholine in a whole body plethysmograph Immunization with α-GalCer was performed as described.
Cytokine ELISA. ELISAS were performed as previously described Macaulay et al. (1998) J. Immunol. 160:1694-1700. The antibody pairs used were as follows, listed by capture/biotinylated detection: IL-4, BVD4-1D11/BVD6-24G2; IFN-γ, R4-6A2/XMG1.2. Recombinant cytokine were used as standards, with curves generated in 1:2 dilutions from […] to 39 pg/ml for IL-4, and 20-2, 156 ng/ml for IFN-γ.
Measurement of anti-OVA antibody isotypes. Mice were bled at the time of sacrifice and OVA-specific antibody was measured using a modified antigen-specific ELISA. For measurement of OVA specific IgG, plates were coated overnight with 5 μg/ml OVA. After washing and blocking, serial diluted sera were added to the plates. Following overnight incubation, the plates were developed using HRPO-conjugated goat anti-IgG subclass-specific antibodies (Southern Biotechnology Associates, Birmingham, Ala.). After additional washing, OPD substrate was added, the plates developed and the OD determined at 492 nm Anti-OVA IgG1 mAb 6C1 and anti-OVA IgG2a mAb 3A11 were used as standards for quantitation of each IgG subclass. Determination of OVA-specific IgE was performed by ELISA, using rat anti-mouse IgE mAb EM95 (5.0 μg/ml) to coat plates. After the samples were applied and incubated overnight, plates were washed and biotinylated OVA (10 μg/ml) was added. Two hours later, plates were washed and HRPO-conjugated streptavidin (Southern Biotechnology Associates) was added. Plates were developed with OPD substrate and the OD determined at 492 nm Sera from mice hyperimmunized with OVA in alum was quantitated for IgE and used as standard for the OVA-specific IgE ELISA.
(§3) Measurement of Airway Responsiveness. Airway responsiveness was assessed by methacholine-induced airflow obstruction from conscious mice placed in a whole body plethysmograph (model PLY 3211, Buxco Electronics Inc., Troy, N.Y.). Pulmonary airflow obstruction was measured by Penh using the following formula:
(§4) [formula] where Penh=enhanced pause (dimensionless), Te=expiratory time, RT=relaxation time, PEF=peak expiratory flow (mI/s), and PIF=peak inspiratory flow (mI/s) (Hamelmann et al. (1997) Am. J. Respir. Crit. Care Med. 156:766-75. Enhanced pause (Penh), minute volume, tidal volume, and breathing frequency were obtained from chamber, pressure, measured with a transducer (model TRD5100) connected to preamplifier modules (model MAX2270) and analyzed by system XA software (model SFT 1810). Measurements of methacholine responsiveness were obtained by exposing mice for 2 min to NaCI 0.9%
(§5) Collection of BAL Fluid and Lung Histology. Animals were injected i.p. with a lethal dose of phenobarbital (450 mg/kg). The trachea was cannulated, and the lung was then lavaged with 0.8 ml of PBS three times, and the fluid pooled. Cells in the lavage fluid were counted using a hemocytometer and BAL cell differentials were determined on slide preparations stained with Hansel Stain (Lide Laboratories, Florissant, Mo.). At least 200 cells were differentiated by light microscopy based on conventional morphologic criteria. In some animals, no BAL was performed but lungs were removed, washed with PBS, fixed in 10% formalin and stained with hematoxylin and eosin.
(a) AHR was measured on day 10. C12-β-GalCer was administered i.v. (100 μg) 1 day prior to OVA/alum sensitization and 6 hours prior to each i.n. challenge (100 μg). […]

Data set [4] deals with NKT cells. Briefly: Oral administration of β-galactosyl ceramide: serum cytokines and liver NKT cell markers. In kind it is in vivo, mouse. The protocol: Doses of β-galactosyl ceramide ranging from 100-800 μg/mouse were administered orally. Cytokine levels of IFN-γ and IL-4 were determined by ELISA as previously described by Zeng et al. (2003), supra. from serum levels.

Data set [5] concerns NZBxNZW mouse. Description: Murine model for systemic lupus erythematosus, proteinuria. It is filed as in vivo. The conditions noted are these: high dose (100 μg/mouse) injected twice weekly, at 38 weeks; PBS control approximately 30%. The protocol: In a murine model for systemic lupus erythematosus, the NZBxNZW mouse, animals were injected twice weekly with one of: PBS, 50 μg/mouse β-galactosyl ceramide, or 100 μg/mouse β-galactosyl ceramide. The animals were analyzed for proteinuria, which is an indication of the development of lupus. In the control group of 15 mice, at 38 weeks, approximately 30% of the mice were without proteinuria, while approximately 80% of the mice treated with the high dose of β-galactosyl ceramide were without proteinuria.

Data set [6] deals with mice with α-GalCer induced airway hyperresponsiveness (AHR). Briefly: α-GalCer induced airway hyperresponsiveness (AHR), methacholine whole body plethysmograph. In kind it is in vivo, BALB/c mice. The protocol:
as §1, §2, §3, §4, §5
A minimum of 4 mice per group were used.

[7] abbreviates: glycolipid alone i.p. (100 μg β Galcer or 0.1 μg α Galcer), untreated about 50 pg/ml.
Setting [8] is: C12-β-GalCer treated group versus OVA/alum positive control.
[9] abbreviates: C12-β-GalCer treated group, four days in culture with 62.5 μg/ml OVA.

With `CCCCCCCCCCCCCCCCCCCCCCCCCC(=O)N[C@@H](CO[C@H]1O[C@H](CO)[C@H](O)[C@H](O)[C@H]1O)[C@H](O)[C@H](O)CCCCCCCCCCCCCC` [α Galcer, α galactosyl ceramide, reference compound], the “rise of serum IgE level” value in data set [1] (0.1 μg α Galcer alone i.p., 10 days after versus before) is listed as “about three fold”. Moreover, the “serum IL-4 level” value in data set [2] (0.1 μg α Galcer alone i.p.) was 1000 pg/mL. In addition, the “increase of serum IL-4 level” value in data set [2] (0.1 μg α Galcer alone i.p., versus untreated) is “about 10 fold”. Further, in data set [2] (setting [7]), the “serum IFN-γ level” value is “increased the level more than two fold”.
In the case of `CCCCCCCCCCCCC/C=C/[C@@H](O)[C@H](CO[C@@H]1O[C@H](CO)[C@H](O)[C@H](O)[C@H]1O)NC(=O)CCCCCCCCCCC` [β Galcer, C12 β galactosyl ceramide], the “synthesis of IgG2c (control)” value in data set [1] (treatment with β-Galcer, FIG. 1D) was “not affected”. Moreover, the “serum IL-4 level” value is “did not increase the level” in data set [2] (100 μg β Galcer alone i.p., untreated about 100 pg/ml); “about 250 pg/ml” in data set [2] (100 μg β Galcer and 0.1 μg α Galcer given at the same time); “A similar pattern was observed” in data set [4] (oral, 100-800 μg/mouse). Besides, the “serum IFN-γ level” value is given as “below 40 pg/ml” in data set [2] (100 μg β Galcer i.p. 1 hour before 0.1 μg α Galcer i.p.); “below 40 pg/ml” in data set [2] (100 μg β Galcer i.p. at the same time as 0.1 μg α Galcer i.p.); “did not increase the level” in data set [2] (setting [7]); “no increase in serum levels at any dose” in data set [4] (oral, 100-800 μg/mouse, 24 hours after administration). In data set [2] (100 μg β Galcer one hour before 0.1 μg α Galcer), the “increase of serum IL-4 induced by α Galcer” value is “completely blocked”. Besides, the AHR entry in data set [3] (C12-β-GalCer 100 μg i.v. 1 day prior to OVA/alum sensitization and 6 hours prior to each i.n. challenge, AHR day 10) is on record as “reduce AHR; also recorded: reduces OVA/alum induced AHR”; in data set [6] (50 μg i.n. and i.v. 2 hours prior to 0.5 μg α-GalCer i.n., 24 hours AHR), “greatly reduces 24 hours AHR”; in data set [6] (100 μg C12-β-GalCer i.v. 2 hours prior to 1.5 μg α-GalCer i.n., AHR at 24 hours), “greatly reduces AHR; also recorded: blocks α-GalCer induced AHR”. In addition, the “eosinophilic infiltration of the lungs (histology)” value in data set [3] (setting [8]) is “reduced but present”. The “neutrophilia in the lungs (histology)” value in data set [3] (setting [8]) was “possibly more neutrophilia”. Moreover, the “serum OVA-specific IgE” value in data set [3] (C12-β-GalCer treated group, 100 μg i.v.) was “reduced”. For the same compound, in data set [3] (setting [9]), the “IFN-γ produced by lymph node cells” value was “slightly more IFN-γ”. Besides, the “IL-4 produced by lymph node cells” value in data set [3] (setting [9]) is “less IL-4”. The “staining for NKT cell markers in the liver” value in data set [4] (oral administration, FIG. 5) was “decreased staining for NKT cell markers in the liver”. In addition, the mice without proteinuria entry in data set [5] is on record as “approximately 80%”. The “AHR induced by the agent itself” value in data set [6] (C12-β-GalCer administered i.n.) was “induces mild AHR”; in data set [6] (C12-β-GalCer i.v. alone), “does not induce any AHR”. Further, in data set [6] (C12-β-GalCer treatment), the “peri-bronchiolar eosinophilic inflammation (histology)” value is “reduced peri-bronchiolar eosinophilic inflammation”. Besides, the “serum IFN-γ” value in data set [6] (following α-GalCer induced AHR) is on record as “more serum IFN-γ”. Moreover, the “lung inflammation (histology)” value in data set [6] (i.v. injection of C12-β-GalCer by itself) is “does not result in any lung inflammation”.
